Experimental data taken from patent publication US4103085A, “7-(Syn-α-alkoxy-iminofurylacetamido-3-(2-carboxyalkyl-2,3-dihy dro-s-triazolo[4,3-b]pyridazin-3-on-6-ylthiomethyl)-3-cephem-4-carboxylic acids” (Bristol-Myers Company, priority 1977, dated 1978).
Converted amounts (≈) assume the structure as drawn. Structures can show the parent of a compound that is named as a salt.

Assays:
Assay type in all cases: cell-based
S. aureus (3 strains) = assay: In vitro activity, Mueller-Hinton agar, serial dilution method (Table 1); details: Staphylococcus aureus, read-out: Geometric Mean of MIC
E. coli (7) = assay: as above; details: Escherichia coli, read-out: Geometric Mean of MIC
Kl. pneumoniae (4) = assay: as above; details: Klebsiella pneumoniae, read-out: Geometric Mean of MIC
From the text: (§1) In vitro Activity Using Mueller-Hinton Agar
(§2) By the Serial Dilution Method

[1] = test system: Shig. (3), Serr. (1) (1), Sal. (2); assay: as above; details: read-out: Geometric Mean of MIC
From the text: as §1, §2

Proteus (6) = assay: as above; details: read-out: Geometric Mean of MIC
[2] = test system: B. anthracis (1) S. pyrogenes (5); assay: microbe, parasite or virus in culture; details: Bacillus anthracis, read-out: Geometric Mean of MIC
S. viridans (5) = assay: In vitro activity, Mueller-Hinton agar, serial dilution method (Table 1); details: Streptococcus viridans, read-out: Geometric Mean of MIC
D. pneumoniae (5) = assay: as above; details: Streptococcus pneumoniae, read-out: Geometric Mean of MIC
N. meningitidis (5) = assay: as above; details: Neisseria meningitidis, read-out: Geometric Mean of MIC
N. gonorrhoeae (5) = assay: as above; details: Neisseria gonorrhoeae, read-out: Geometric Mean of MIC
H. influenzae (7) = assay: as above; details: Haemophilus influenzae, read-out: Geometric Mean of MIC
E. cloacae = assay: MICs in Mueller-Hinton agar (Table 2); details: Enterobacter cloacae, 1 strain, read-out: Geometric Means of MIC's
From the text: (§3) Geometric Means of MIC's Against 3 Strains
(§4) of S. aureus and 27 Strains of Gram-negative Bacteria
(§5) (mcg./ml., Mueller-Hinton Agar)

E. coli, Cephalosporin-R = assay: MICs in Mueller-Hinton agar (Table 2); details: Escherichia coli, 1 strain, read-out: Geometric Means of MIC's
From the text: as §3, §4, §5

E. coli = assay: MICs in Mueller-Hinton agar (Table 2); details: Escherichia coli, 6 strains, read-out: Geometric Means of MIC's
From the text: as §3, §4, §5

Indole (-) Proteus = assay: MICs in Mueller-Hinton agar (Table 2); details: 2 strains, read-out: Geometric Means of MIC's
From the text: as §3, §4, §5

[3] = test system: Indole(+) Proteus, Cephalosporin-R; assay: MICs in Mueller-Hinton agar (Table 2); details: 2 strains, read-out: Geometric Means of MIC's
From the text: as §3, §4, §5

Indole(+) Proteus = assay: MICs in Mueller-Hinton agar (Table 2); details: 3 strains, read-out: Geometric Means of MIC's
From the text: as §3, §4, §5

K. pneumoniae = assay: MICs in Mueller-Hinton agar (Table 2); details: Klebsiella pneumoniae, 4 strains, read-out: Geometric Means of MIC's
From the text: as §3, §4, §5

P. aeruginosa = assay: MICs in Mueller-Hinton agar (Table 2); details: Pseudomonas aeruginosa, 2 strains, read-out: Geometric Means of MIC's
From the text: as §3, §4, §5

S. aureus, Penicillin-R = assay: MICs in Mueller-Hinton agar (Table 2); details: Staphylococcus aureus, 2 strains, read-out: Geometric Means of MIC's
From the text: as §3, §4, §5

S. marcescens [4] = assay: MICs in Mueller-Hinton agar (Table 2); details: Serratia marcescens, 1 strain, read-out: Geometric Means of MIC's
From the text: as §3, §4, §5

Shigella, Salmonella = assay: MICs in Mueller-Hinton agar (Table 2); details: 5 strains, read-out: Geometric Means of MIC's
From the text: as §3, §4, §5

S. marcescens [5] = assay: MICs against 18 strains of S. marcescens (Table 3); details: Serratia marcescens, read-out: Geometric Means of MIC's
From the text: Geometric Means of MIC's Against 18 Strains

S. aureus = assay: MICs in Mueller-Hinton agar (Table 2); details: Staphylococcus aureus, 1 strain, read-out: Geometric Means of MIC's
From the text: as §3, §4, §5

Which MIC (S. aureus (3 strains)) does the source give for `CO/N=C(\C(=O)N[C@@H]1C(=O)N2C(C(=O)O)=C(CSc3ccc4nn(CCC(=O)O)c(=O)n4n3)CS[C@H]12)c1ccco1` [BB-S526, 7-[(2Z)-2-Methoxyimino(fur-2-yl)acetamido]-3-[2-(2-carboxyethyl)-2,3-dihydro-s-triazolo[4,3-b]pyridazin-3-on-6-ylthiomethyl]-3-cephem-4-carboxylic Acid Sodium Salt] here?
The MIC was 1.6 µg/mL.

And the MIC (E. coli (7))?
The MIC was 0.78 µg/mL.

And the MIC (Kl. pneumoniae (4))?
The MIC was 0.93 µg/mL.

What about the MIC [1] of the same molecule?
The MIC was 2.41 µg/mL.

What about the MIC (Proteus (6)) of the same molecule?
The MIC was 0.061 µg/mL.

And the MIC [2]?
The MIC was 0.032 µg/mL.

And the MIC (S. viridans (5))?
The MIC was 0.4 µg/mL.

What about the MIC (D. pneumoniae (5)) of the same molecule?
Its MIC is 0.056 µg/mL.

And the MIC (N. meningitidis (5))?
The MIC was 3.6 µg/mL.

And the MIC (N. gonorrhoeae (5))?
The MIC was 1.6 µg/mL.

And the MIC (H. influenzae (7))?
The MIC was 0.71 µg/mL.

What does the source list for `NCc1ccccc1CC(=O)N[C@@H]1C(=O)N2C(C(=O)O)=C(CSc3nnnn3CC(=O)O)CS[C@H]12` [BL-S786, 7-[α-(2-aminomethylphenyl)acetamido]-3-[(1-carboxymethyltetrazol-5-lthio)methyl]-3-cephem-4-carboxylic acid, reference compound]?
MIC (E. cloacae): 1.6 µg/mL (≈ 3.08 µM); MIC (E. coli, Cephalosporin-R): 12.5 µg/mL (≈ 24.1 µM); MIC (E. coli): 0.2 µg/mL (≈ 0.385 µM); MIC (Indole (-) Proteus): 0.2 µg/mL (≈ 0.385 µM); MIC [3]: 50.1 µg/mL (≈ 96.4 µM); MIC (Indole(+) Proteus): 0.3 µg/mL (≈ 0.577 µM); MIC (K. pneumoniae): 0.3 µg/mL (≈ 0.577 µM); MIC (P. aeruginosa): > 100 µg/mL; MIC (S. aureus, Penicillin-R): 1.6 µg/mL (≈ 3.08 µM); MIC (S. marcescens [4]): > 100 µg/mL; MIC (Shigella, Salmonella): 0.5 µg/mL (≈ 0.962 µM); MIC (S. marcescens [5]): 85.9 µg/mL (≈ 165 µM)

What does the source list for `CO/N=C(\C(=O)N[C@@H]1C(=O)N2C(C(=O)O)=C(COC(N)=O)CS[C@H]12)c1ccco1` [Cefuroxime, sodium 6R,7R-3-carbamoyloxymethyl-7-(2Z)-2-methoxyimino(fur-2-yl)acetamidoceph-3em-4-carboxylate, reference compound]?
MIC (S. aureus (3 strains)): 1.24 µg/mL; MIC (E. coli (7)): 1.28 µg/mL; MIC (Kl. pneumoniae (4)): 3.1 µg/mL; MIC [1]: 4.06 µg/mL; MIC (Proteus (6)): 0.88 µg/mL; MIC [2]: 0.025 µg/mL; MIC (S. viridans (5)): 0.1 µg/mL; MIC (D. pneumoniae (5)): 0.0125 µg/mL; MIC (N. meningitidis (5)): 1.6 µg/mL; MIC (N. gonorrhoeae (5)): 0.4 µg/mL; MIC (H. influenzae (7)): 1.16 µg/mL

How did the MIC (S. aureus (3 strains)) turn out when `CO/N=C(\C(=O)N[C@@H]1C(=O)N2C(C(=O)O)=C(CSc3ccc4nn(CC(=O)O)c(=O)n4n3)CS[C@H]12)c1ccco1` [BB-S511, 7-[(2Z)-2-Methoxyimino(fur-2-yl)acetamido]-3-(2-carboxymethyl-2,3-dihydro-s-triazolo[4,3-b]pyridazin-3-on-6-ylthiomethyl)-3-cephem-4-carboxylic Acid Disodium Salt] was run?
The MIC was 1.97 µg/mL.

And the MIC (E. coli (7))?
The MIC was 0.58 µg/mL.

What about the MIC (Kl. pneumoniae (4)) of the same molecule?
Its MIC is 0.47 µg/mL.

What about the MIC [1] of the same molecule?
The MIC was 1.11 µg/mL.

What about the MIC (Proteus (6)) of the same molecule?
The MIC was 0.021 µg/mL.

And the MIC [2]?
Its MIC is 0.032 µg/mL.

What about the MIC (S. viridans (5)) of the same molecule?
Its MIC is 0.15 µg/mL.

And the MIC (D. pneumoniae (5))?
The MIC was 0.037 µg/mL.

And the MIC (N. meningitidis (5))?
Its MIC is 2.37 µg/mL.

And the MIC (N. gonorrhoeae (5))?
The MIC was 1.36 µg/mL.

What about the MIC (H. influenzae (7)) of the same molecule?
Its MIC is 0.64 µg/mL.

What about the MIC (E. cloacae) of the same molecule?
Its MIC is 3.1 µg/mL.

And the MIC (E. coli, Cephalosporin-R)?
The MIC was 6.3 µg/mL.

What about the MIC (E. coli) of the same molecule?
The MIC was 0.2 µg/mL.

What about the MIC (Indole (-) Proteus) of the same molecule?
The MIC was 0.1 µg/mL.

And the MIC [3]?
The MIC was 6.3 µg/mL.

What about the MIC (Indole(+) Proteus) of the same molecule?
The MIC was 0.05 µg/mL.

What about the MIC (K. pneumoniae) of the same molecule?
The MIC was 0.7 µg/mL.

And the MIC (P. aeruginosa)?
The MIC was greater than 100 µg/mL.

What about the MIC (S. aureus, Penicillin-R) of the same molecule?
Its MIC is 0.6 µg/mL.

And the MIC (S. aureus)?
The MIC was 1.6 µg/mL.

And the MIC (S. marcescens [4])?
Its MIC is 25 µg/mL.

What about the MIC (Shigella, Salmonella) of the same molecule?
Its MIC is 0.3 µg/mL.

What about the MIC (S. marcescens [5]) of the same molecule?
The MIC was 5.4 µg/mL.
